# According to US20240190854A1, “PYRIMIDINE OR PYRIDINE DERIVATIVES USEFUL AS HCN2 MODULATORS” (King's College London, priority 2021, published 2024):
# “Also recorded” adds a separate entry of the source. Where a name gives a salt, the structure may show the parent alone.
# Legend:
# [1] = system: guinea pigs, salicylate-induced tinnitus; test: GPIAS test, short-term salicylate tinnitus model; format: in vivo, guinea pig; settings: salicylate 350 mg/kg i.p.; ivabradine 5 mg/kg s.c.
# Text: (§1) Tinnitus in guinea pigs was monitored using the gap induced inhibition of the acoustic startle (GPIAS) test (see FIG. 5). GPIAS is reduced when tinnitus was present; see Berger, J. I. et al. Effects of the cannabinoid CB1 agonist ACEA on salicylate ototoxicity, hyperacusis and tinnitus in guinea pigs. Hearing research, (2017), and Coomber, B. et al. Neural changes accompanying tinnitus following unilateral acoustic trauma in the guinea pig. Eur J Neurosci 40, 2427-2441, (2014).
# (§2) In FIG. 5, sound stimulus (above) and corresponding pinna reflex (below) are shown in freely moving guinea pigs. Stimuli with no gap and gap are presented in a randomised order. Traces contaminated by movement (the upper trace in “no gap”) were removed before analysis.
# Tinnitus was induced within 1-2 hours in humans by high doses of salicylate. A similar short-term tinnitus model was implemented in guinea pigs by i.p. injection of salicylate. In all animals, salicylate caused behavioural inhibition of GPIAS (see bar 2 in FIG. 6).
# Salicylate (350 mg/kg, i.p.) impairs behavioural gap detection 2 h after salicylate administration (see bar 2 in of FIG. 6). Gap detection was restored by blocking HCN channels with ivabradine (5 mg/kg, s.c.).
# [2] = system: guinea pigs, noise-exposure tinnitus; test: GPIAS test, noise-exposure tinnitus model; format: in vivo, guinea pig
# Text: as §1, §2
# The noise-exposure model is more clinically relevant than the salicylate model, as it parallels a common cause of tinnitus in humans. A second important point is that it is long-term, while tinnitus induced by salicylate is rapidly reversed following salicylate exposure.
# [3] = CNS penetration: plasma, brain and auditory nerve levels; format: in vivo; settings: guinea pig, auditory nerve, other: injection; 30 min after injection, n=2, preliminary; read-out: Ratio of total concentrations auditory nerve : plasma
# Procedure: Ivabradine in guinea pig plasma, brain (somatosensory cortex) and auditory nerve were assayed at 30 min after injection, the time used in Example 130.
# mice, normal hearing = format: in vivo; settings: adult mice; Example 29 at 20 mg/kg ip
# Black6 mice = settings: mouse, in vivo; cited from earlier work
# HCN2 = HCN2 (Homo sapiens (Human), UniProt Q9UL51); test: HCN2 current assay using the Sophion Qube; format: cell-based; settings: Sophion Qube protocol; read-out: SQ HCN2 IC50
# Procedure: (§3) Example 126B, Using the Sophion Qube
# (§4) Solutions for recording HCN currents were:
# (§5) This voltage protocol was applied every 20 seconds for the duration of the experiment. Both the vehicle (0.3% DMSO) and full block (3 mM CsCl) addition periods were applied for 10 experimental sweeps each.
# (§6) The current amplitudes were measured by subtracting metric A from metric B (see FIG. 2) with inhibition calculated by normalising to the vehicle addition (0.3% DMSO) and full inhibition by 3 mM CsCl in the same well.
# (§7) In total, compound was applied to the well for 600 seconds.
# HCN4 = HCN4 (Homo sapiens (Human), UniProt Q9Y3Q4); test: HCN4 current assay using the Sophion Qube; format: cell-based; settings: Sophion Qube protocol; read-out: SQ HCN4 IC50
# Procedure: as §3, §4, §5, §6, §7
# HCN1 = HCN1 (Homo sapiens (Human), UniProt O60741); test: HCN1 current assay using the Sophion Qube; format: cell-based; settings: Sophion Qube protocol; read-out: SQ HCN1 IC50
# Procedure: as §3, §4, §5, §6, §7
# hERG channel = hERG channel (Homo sapiens (Human), UniProt Q12809); test: hERG assay using Sophion Qube; format: cell-based; settings: Sophion Qube protocol; read-out: SQ hERG IC50
# Procedure: Example 127B, Using Sophion Qube
# Solutions for recording hERG currents were:
# This voltage protocol was applied every 15 seconds for the duration of the experiment. Both the vehicle and 1st compound addition periods were applied for 10 sweeps. The 2nd compound addition period was applied for 20 sweeps. The compound concentration was added to the test well twice to assure complete exchange of the external buffer with the test compound. In total, compound was applied to the well for 450 seconds.
# hNav1.5 = hNav1.5 (Homo sapiens (Human), UniProt Q14524)
# Procedure: The cells were held at −100 mV followed by a depolarising step to −10 mV for 100 milliseconds before stepping back to −100 mV, this represents 1 experimental sweep.
# For tonic block (0.1 Hz), the peak currents evoked by the step to −10 mV were measured for the analysis of the percentage inhibition by test compounds. For use-dependent block (4 Hz), the peak current evoked at the 20th depolarising step to −10 mV was measured for the analysis of the percentage inhibition by test compounds. Peak currents were first normalised to the vehicle addition (0.3% DMSO) in the same well.
# MDR1 (P-glycoprotein) = MDR1 (P-glycoprotein) (Homo sapiens (Human), UniProt P08183); test: in vitro; settings: dog, MDCK-MDR1, pH 7.4
# Procedure: Test compounds were added (10 μM, 0.1% DMSO final, n=2) to donor compartments of the Transwell plate assembly in assay buffer (Hanks balanced salt solution supplemented with 25 mM HEPES, adjusted to pH 7.4) for both apical to basolateral (A>B) and basolateral to apical (B>A) measurements. A parallel series of incubations were performed in the presence of the transporter inhibitor elacridar (5 μM) which was added to both compartments in the transwell plate. Incubations were performed at 37° C., with samples removed from both donor and acceptor chambers at T=0 and 1 hour for recovery assessment and compound analysed by mass spectrometry (LC-MS/MS), including an analytical internal standard.
# Apparent permeability (Papp) values were determined from the relationship:
# Where V is the volume of each Transwell compartment (apical 125 μL, basolateral 600 μL), and concentrations are the relative MS responses for compound (normalized to internal standard) in the donor chamber before incubation and acceptor chamber at the end of the incubation.
# Area=area of cells exposed for drug transfer (0.33 cm2).
# Efflux ratios (Papp B>A/Papp A>B) were calculated for each compound from the mean Papp values in each direction. […] The efflux ratios were also calculated in the same way from the runs carried out in the presence of the inhibitor. The net flux is the ratio of the efflux in the absence of inhibitor to that in the presence of inhibitor.
# Lucifer Yellow (LY) was added to the apical buffer in all wells to assess viability of the cell layer.
# Compound recovery from the wells was determined from MS responses (normalized to internal standard) in donor and acceptor chambers at the end of incubation compared to response in the donor chamber pre-incubation.
# [4] = system: mouse neuropathic pain model (partial sciatic nerve ligation); test: Mouse neuropathic pain model (PSNL), von Frey filament; format: in vivo; settings: for Mechanical analgesia (von Frey): day 5 after PSNL
# Procedure: The model used was analogous to the model described in Seltzer Z, Dubner R, & Shir Y (1990), A novel behavioural model of neuropathic pain disorders produced in rats by partial sciatic nerve injury, Pain 43: 205-218). […] Sci Transl Med 9: eaam6072.
# The mechanical pain threshold was measured by manual von Frey filament applied to hind paw on the operated side, using the “up-down” method.
# Mechanical pain threshold was measured as in Example 133 1 day before and 8 days after partial sciatic nerve ligation (PSNL) neuropathic pain induction. The test compound was administered at a low dose of 0.2 mg/kg every two hours with a control arm of vehicle only injections.
# Mechanical pain threshold was measured as in Example 133 1 day before and 5-8 days after partial sciatic nerve ligation (PSNL) neuropathic pain induction. The test compound was administered at a dose of 0.5 mg/kg twice-daily at 8 hour intervals with a control arm of vehicle only injections, and mechanical pain threshold was measured 4 hours after the first injection.
# [5] = system: mouse neuropathic pain model (partial sciatic nerve ligation); test: Mouse neuropathic pain model, paw pressure (Randall Sellito test); format: in vivo
# hERG channel, sequence (Q12809 whole entry): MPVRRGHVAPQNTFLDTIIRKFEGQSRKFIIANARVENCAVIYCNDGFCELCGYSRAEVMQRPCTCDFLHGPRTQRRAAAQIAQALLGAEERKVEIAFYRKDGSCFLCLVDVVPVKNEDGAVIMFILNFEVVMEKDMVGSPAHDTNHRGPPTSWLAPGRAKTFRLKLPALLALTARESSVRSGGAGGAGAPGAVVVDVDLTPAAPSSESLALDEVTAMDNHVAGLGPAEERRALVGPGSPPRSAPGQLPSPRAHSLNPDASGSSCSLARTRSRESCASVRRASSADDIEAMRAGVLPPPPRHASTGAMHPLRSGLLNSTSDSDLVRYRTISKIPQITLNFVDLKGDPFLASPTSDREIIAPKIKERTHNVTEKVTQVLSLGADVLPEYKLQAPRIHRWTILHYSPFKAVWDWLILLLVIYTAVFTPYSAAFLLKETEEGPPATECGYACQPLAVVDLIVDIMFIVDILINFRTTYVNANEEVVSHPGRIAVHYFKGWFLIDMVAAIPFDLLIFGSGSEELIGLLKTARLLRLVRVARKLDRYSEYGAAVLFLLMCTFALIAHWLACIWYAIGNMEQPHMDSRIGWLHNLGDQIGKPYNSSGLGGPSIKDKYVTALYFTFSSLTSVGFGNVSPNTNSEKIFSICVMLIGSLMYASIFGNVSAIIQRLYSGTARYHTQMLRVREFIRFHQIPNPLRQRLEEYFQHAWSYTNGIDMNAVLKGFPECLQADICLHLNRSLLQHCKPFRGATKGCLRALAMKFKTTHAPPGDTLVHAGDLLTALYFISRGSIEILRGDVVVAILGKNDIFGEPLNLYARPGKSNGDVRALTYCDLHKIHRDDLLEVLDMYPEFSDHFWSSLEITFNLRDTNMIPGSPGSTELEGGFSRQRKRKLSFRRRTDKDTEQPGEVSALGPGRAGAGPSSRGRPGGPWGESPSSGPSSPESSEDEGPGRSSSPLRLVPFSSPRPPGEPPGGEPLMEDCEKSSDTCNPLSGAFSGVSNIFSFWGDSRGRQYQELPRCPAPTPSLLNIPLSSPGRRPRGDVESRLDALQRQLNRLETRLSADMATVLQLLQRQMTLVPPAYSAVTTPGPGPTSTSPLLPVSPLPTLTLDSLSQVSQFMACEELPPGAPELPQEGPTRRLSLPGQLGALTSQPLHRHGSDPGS
# hNav1.5, sequence (Q14524 whole entry): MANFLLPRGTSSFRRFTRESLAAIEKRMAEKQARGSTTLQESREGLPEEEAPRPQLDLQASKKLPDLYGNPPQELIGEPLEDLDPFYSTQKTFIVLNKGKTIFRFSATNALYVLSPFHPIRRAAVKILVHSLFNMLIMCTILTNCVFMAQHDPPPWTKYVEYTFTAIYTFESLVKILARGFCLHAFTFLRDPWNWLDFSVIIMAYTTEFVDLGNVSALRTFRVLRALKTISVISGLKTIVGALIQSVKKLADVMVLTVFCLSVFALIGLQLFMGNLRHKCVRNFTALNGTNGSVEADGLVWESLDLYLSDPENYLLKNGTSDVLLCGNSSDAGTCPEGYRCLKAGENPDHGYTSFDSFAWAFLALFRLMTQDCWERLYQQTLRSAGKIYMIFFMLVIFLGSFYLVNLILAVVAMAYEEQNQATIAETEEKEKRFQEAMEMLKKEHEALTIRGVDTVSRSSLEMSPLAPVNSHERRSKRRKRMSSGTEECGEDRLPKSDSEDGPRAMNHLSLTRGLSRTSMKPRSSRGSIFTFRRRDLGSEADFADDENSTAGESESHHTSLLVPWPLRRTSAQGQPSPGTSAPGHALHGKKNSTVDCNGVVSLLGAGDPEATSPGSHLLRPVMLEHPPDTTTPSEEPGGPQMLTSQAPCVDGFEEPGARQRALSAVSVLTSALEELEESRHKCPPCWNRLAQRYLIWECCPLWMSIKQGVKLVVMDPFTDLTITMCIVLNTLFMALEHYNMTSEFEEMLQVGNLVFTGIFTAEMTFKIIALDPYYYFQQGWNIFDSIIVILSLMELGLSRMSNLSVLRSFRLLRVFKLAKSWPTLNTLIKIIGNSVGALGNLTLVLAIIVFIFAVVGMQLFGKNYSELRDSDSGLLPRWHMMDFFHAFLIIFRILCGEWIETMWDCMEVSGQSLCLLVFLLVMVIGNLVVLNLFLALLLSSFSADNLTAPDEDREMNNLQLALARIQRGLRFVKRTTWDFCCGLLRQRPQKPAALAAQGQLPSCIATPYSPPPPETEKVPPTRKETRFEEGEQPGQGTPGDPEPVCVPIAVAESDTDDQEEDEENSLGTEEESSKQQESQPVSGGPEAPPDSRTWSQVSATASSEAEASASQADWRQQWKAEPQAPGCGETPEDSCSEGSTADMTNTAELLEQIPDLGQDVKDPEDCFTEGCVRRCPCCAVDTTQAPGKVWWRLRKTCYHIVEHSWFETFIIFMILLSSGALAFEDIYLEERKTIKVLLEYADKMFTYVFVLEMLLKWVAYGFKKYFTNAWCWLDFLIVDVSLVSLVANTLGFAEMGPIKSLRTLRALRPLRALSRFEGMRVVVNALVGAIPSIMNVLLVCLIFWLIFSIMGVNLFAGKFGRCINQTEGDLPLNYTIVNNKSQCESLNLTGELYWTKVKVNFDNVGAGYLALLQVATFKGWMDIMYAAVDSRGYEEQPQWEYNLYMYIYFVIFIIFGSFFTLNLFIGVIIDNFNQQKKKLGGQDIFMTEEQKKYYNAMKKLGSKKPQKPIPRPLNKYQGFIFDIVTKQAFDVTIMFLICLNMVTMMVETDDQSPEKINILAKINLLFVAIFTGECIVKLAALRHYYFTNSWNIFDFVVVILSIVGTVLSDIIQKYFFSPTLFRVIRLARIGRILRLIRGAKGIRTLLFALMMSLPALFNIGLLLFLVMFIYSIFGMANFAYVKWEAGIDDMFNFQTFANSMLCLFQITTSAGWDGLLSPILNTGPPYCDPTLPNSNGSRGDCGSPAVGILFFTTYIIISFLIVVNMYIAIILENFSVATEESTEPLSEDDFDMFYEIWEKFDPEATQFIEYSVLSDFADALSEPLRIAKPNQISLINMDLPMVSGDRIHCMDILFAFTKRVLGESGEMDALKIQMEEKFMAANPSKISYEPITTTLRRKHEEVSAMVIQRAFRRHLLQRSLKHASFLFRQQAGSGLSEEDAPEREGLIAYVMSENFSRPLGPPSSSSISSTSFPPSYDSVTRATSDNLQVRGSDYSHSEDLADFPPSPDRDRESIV
# MDR1 (P-glycoprotein), sequence (P08183 whole entry): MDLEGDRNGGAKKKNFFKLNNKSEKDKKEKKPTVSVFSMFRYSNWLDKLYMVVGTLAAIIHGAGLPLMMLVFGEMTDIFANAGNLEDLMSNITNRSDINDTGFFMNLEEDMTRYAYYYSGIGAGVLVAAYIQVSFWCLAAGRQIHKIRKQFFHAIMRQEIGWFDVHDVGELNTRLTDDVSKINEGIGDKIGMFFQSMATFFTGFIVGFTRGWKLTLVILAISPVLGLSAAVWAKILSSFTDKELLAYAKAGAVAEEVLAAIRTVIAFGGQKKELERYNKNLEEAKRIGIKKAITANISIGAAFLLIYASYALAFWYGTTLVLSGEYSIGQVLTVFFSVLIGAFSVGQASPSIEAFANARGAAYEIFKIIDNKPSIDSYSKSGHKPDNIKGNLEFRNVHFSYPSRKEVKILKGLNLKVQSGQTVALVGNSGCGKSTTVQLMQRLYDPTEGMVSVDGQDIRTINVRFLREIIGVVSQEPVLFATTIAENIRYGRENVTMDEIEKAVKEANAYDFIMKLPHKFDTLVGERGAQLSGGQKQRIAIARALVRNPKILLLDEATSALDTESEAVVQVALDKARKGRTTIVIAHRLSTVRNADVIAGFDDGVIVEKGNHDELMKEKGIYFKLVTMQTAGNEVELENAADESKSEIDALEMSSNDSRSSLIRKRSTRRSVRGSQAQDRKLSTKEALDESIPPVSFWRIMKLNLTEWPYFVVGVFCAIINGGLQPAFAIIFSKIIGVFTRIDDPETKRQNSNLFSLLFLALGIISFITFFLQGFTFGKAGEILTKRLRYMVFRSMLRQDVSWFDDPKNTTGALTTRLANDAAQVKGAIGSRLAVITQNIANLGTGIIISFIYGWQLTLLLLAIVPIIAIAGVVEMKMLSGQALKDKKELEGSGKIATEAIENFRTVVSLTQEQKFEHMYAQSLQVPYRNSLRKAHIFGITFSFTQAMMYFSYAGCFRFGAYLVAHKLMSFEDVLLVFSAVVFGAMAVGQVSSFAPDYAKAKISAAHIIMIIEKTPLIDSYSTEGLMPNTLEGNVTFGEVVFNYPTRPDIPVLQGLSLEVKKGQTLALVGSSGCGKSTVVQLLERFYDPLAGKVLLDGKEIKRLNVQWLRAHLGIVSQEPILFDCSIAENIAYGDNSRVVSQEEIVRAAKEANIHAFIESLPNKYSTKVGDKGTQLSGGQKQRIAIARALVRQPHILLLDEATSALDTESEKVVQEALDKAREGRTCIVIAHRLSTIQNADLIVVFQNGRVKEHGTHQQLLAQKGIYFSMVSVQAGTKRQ
Compound,IC50 (HCN2) [µM],IC50 (HCN4) [µM],IC50 (HCN1) [µM],IC50 (hERG channel) [µM],IC50 (hNav1.5) [µM],"efflux ratio at 1 h, 10 μM (MDR1 (P-glycoprotein))",also measured
"COc1cc2c(cc1OC)CC(=O)N(CCCN(C)C[C@H]1Cc3cc(OC)c(OC)cc31)CC2 [ivabradine, Ivabradine]",–,–,–,–,–,–,"Effect on GPIAS (behavioural gap detection) [1]: reversed GPIAS; also recorded: restored; Effect on GPIAS in noise-exposed guinea pigs showing no behavioural tinnitus ([2]; control experiments, n=3): without effect on GPIAS; also recorded: without effect on gap detection; Effect on reduced GPIAS after noise exposure ([2]; guinea pigs with impaired GPIAS, 5 mg/kg s.c.): rapidly and completely reversed; also recorded: fully restores GPIAS; Kp at 30 min [3]: 0.57; Effect on ABR threshold or latency (mice, normal hearing): no significant difference; Therapeutic window between analgesia and bradycardia (Black6 mice): little therapeutic window"
"CS(=O)(=O)c1ccc(F)c(C[C@H](N)c2ccccc2-c2noc3cc(Cl)ccc23)n1 [Example 13, (S)-1-[2-(6-Chlorobenzo[d]isoxazol-3-yl)phenyl]-2-(3-fluoro-6-methylsulfonylpyridine-2-yl)ethan-1-amine hydrochloride]",2.6,> 30,3.2,1.4,15.1,6.2,–
"Cc1ccc(S(C)(=O)=O)nc1C[C@H](N)c1ccccc1-c1noc2cc(F)ccc12 [Example 24, (S)-1-[2-(6-Fluorobenzo[d]isoxazol-3-yl)phenyl]-2-(3-methyl-6-methylsulfonylpyridin-2-yl)ethan-1-amine hydrochloride]",1.3,7.8,4.2,3.4,22.4,10.4,–
"CS(=O)(=O)c1ccc(F)c(C[C@H](N)c2ccccc2-c2noc3ccccc23)n1 [Example 5, (S)-1-[2-(Benzo[d]isoxazol-3-yl)phenyl]-2-[3-fluoro-6-(methylsulfonyl)pyridine-2-yl]ethan-1-amine hydrochloride]",–,–,–,–,–,–,"Mechanical analgesia (von Frey) ([4]; 0.1 mg/kg i.p.): partial analgesia; Mechanical analgesia (von Frey), first dose ([4]; 0.2 mg/kg every two hours, first dose): only partial analgesia; Mechanical analgesia (von Frey), subsequent doses ([4]; 0.2 mg/kg every two hours, subsequent doses): increase in analgesia towards full analgesia; Mechanical analgesia (von Frey) ([4]; 0.5 mg/kg i.p.): full analgesia; Mechanical analgesia (von Frey), successive doses over 4 days ([4]; 0.5 mg/kg twice-daily at 8 hour intervals, 4 days): full and sustained analgesia; Mechanical analgesia (von Frey), 4 hours after first injection ([4]; 0.5 mg/kg twice-daily at 8 hour intervals, first injection): little analgesia; ED50 ([4]; Mus musculus, ip, maximal analgesia, n=3-4 mice, read-out: Analgesic ED50): 0.17 mg/kg; Analgesia, paw pressure (Randall Sellito) ([5]; 0.1 mg/kg i.p.): partial analgesia; Analgesia, paw pressure (Randall Sellito) ([5]; 0.5 mg/kg i.p.): full analgesia"
"CS(=O)(=O)c1ccc(F)c(C[C@H](N)c2ccccc2-c2noc3cc(F)ccc23)n1 [Example 20, (S)-2-(3-Fluoro-6-methylsulfonylpyridin-2-yl)-1-[2-(6-fluorobenzo[d]isoxazol-3-yl)phenyl]ethan-1-amine hydrochloride]",3.1,> 30,16.9,2.9,28.1,6.2,–
